Experimental findings from US20230052528A1 (priority 2019, published 2023) are described below.

Each structure is given as a SMILES string. Where two headings read alike, the source gives them in different places.

Usually Ki stands for a measure of affinity in units of concentration, obtained from inhibition or displacement. Higher therefore signals a looser hold on the target. By kinact is commonly meant the maximal first-order rate at which the target is inactivated. Usually EC50 stands for the concentration at which the effect is half-maximal.

A short description of data set [1]: Stability of shouldered triazole compound (method not described).
In data set [2] the target is T1, Taspase1 (Homo sapiens, UniProt Q9H6P5).
T1 sequence (Q9H6P5 1-233): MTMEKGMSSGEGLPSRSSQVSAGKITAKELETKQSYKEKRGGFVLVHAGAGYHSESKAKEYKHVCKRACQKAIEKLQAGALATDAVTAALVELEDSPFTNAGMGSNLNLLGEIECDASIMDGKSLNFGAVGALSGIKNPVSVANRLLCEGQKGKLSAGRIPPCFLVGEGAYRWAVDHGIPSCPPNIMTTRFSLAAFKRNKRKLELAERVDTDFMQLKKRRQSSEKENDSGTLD
T1 sequence (Q9H6P5 234-420): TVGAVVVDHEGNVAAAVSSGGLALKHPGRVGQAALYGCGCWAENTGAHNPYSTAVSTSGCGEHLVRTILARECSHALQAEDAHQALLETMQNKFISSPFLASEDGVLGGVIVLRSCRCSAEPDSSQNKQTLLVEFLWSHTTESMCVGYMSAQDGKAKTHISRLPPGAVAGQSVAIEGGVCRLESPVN
Nature of the data set: biochemical. Here is the method: (§1) FIGS. 4A-4B. […] “Taspase1 IC50 (FAM)”=inhibition of cleavage of a Taspase1 peptide substrate; detected by fluorescence resonance energy transfer (FRET). “6.6 mM GSH added”=same assay, in the presence of 6.6 mM glutathione (GSH). […] “Ki”=Ki determined by kinact/Ki measurements, using the Taspase1/FRET-peptide assay described above.
Ki is the binding constant that describes the energy of association for the non-covalent portion of the molecule. Kinact is the rate at which the covalent bond is formed between the small molecule and the protein.

The target of data set [3] is T2, wildtype Taspase1 (split Tasp1 WT) (Homo sapiens, UniProt Q9H6P5).
T2 sequence (Q9H6P5 1-233): T1 sequence (Q9H6P5 1-233)
T2 sequence (Q9H6P5 234-420): T1 sequence (Q9H6P5 234-420)
Briefly: biochemical. How it is done: as §1
To extend that assay, compounds are also tested in the presence of 6.6 mM GSH as a non-specific, but physiologically relevant, thiol competitor.

The test system of data set [4] is PC3 prostate cells. Briefly: Cell viability, PC3. The data set is classed as cell-based. Particulars: read-out: IC50 (μM) PC3 (Prostate).
For data set [5], the system named is H522 lung cancer cells. Nature of the data set: Cell viability, H522. Particulars: Homo sapiens. Format: cell-based.
The subject of data set [6] is HSAEC 1-KT cells. Briefly: Cell viability, HSAEC 1-KT. The data set is classed as cell-based. Particulars: read-out: IC50 (μM) HSAEC 1-KT (Lung).
The subject of data set [7] is PC9 lung cancer cells. Nature of the data set: Cell viability (CellTiter-Glo), PC9. The data set is classed as cell-based. In general terms: Cellular ATP, detected with luciferase, serves as a proxy for viable cell number.
For data set [8], the system named is MDA-MB-231 triple-negative breast cancer cells. Nature of the data set: Cell viability, MDA-MB-231. Format: cell-based. Particulars: Homo sapiens.
The test system of data set [9] is H1975 lung cancer cells. Nature of the data set: Cell viability, H1975. The data set is classed as cell-based. Particulars: Homo sapiens.
For data set [10], the target named is T3, split Tasp1 WT (Homo sapiens, UniProt Q9H6P5).
T3 construct: residues 1-233 (alpha domain) in Multiple Cloning Site-1 (MCS-1); residues 234-420 (beta domain) in MCS-2; His6 (TEV-cleavable) (N, cleaved yes); made in house; host or cells: E. coli Rosetta2(DE3)
T3 sequence (Q9H6P5 1-233): T1 sequence (Q9H6P5 1-233)
T3 sequence (Q9H6P5 234-420): T1 sequence (Q9H6P5 234-420)
Briefly: LC-MS tethering dose-response (DR50) assay. Format: binding. Particulars: relative to the other shouldered piperazine analogs.

Data set [11] deals with PC9, H1975, H522, HSAEC 1-KT, MDA-MB-231 and PC3 cell lines. Nature of the data set: Cell viability, statements over all cell lines studied. Format: cell-based. Particulars: for EC50: read-out: EC50.
[12] abbreviates: read-out: kinact (s^−1), Table 1.
Setting [13] is: read-out: kinact (s^−1), Table 1a.
Where [14] appears, read: Biochemical IC50 (nM) +6.6 mM GSH, Table 1, +6.6 mM GSH, 3FAM/QXL520 fluorescent dyes.
The mark [15] stands for this setting: Biochemical IC50 (nM) no GSH, Table 1, no GSH, 3FAM/QXL520 fluorescent dyes.
Setting [16] is: WT IC50 (nM) 6.6 mM GSH, Table 1a, 6.6 mM GSH, average ± std dev.
Setting [17] is: WT IC50 (nM) No GSH, Table 1a, no GSH, average ± std dev.
Where [18] appears, read: NCI-H522, Table 2a cytotoxicity, read-out: IC50 (μM) H522 (Lung).
Setting [19] is: Table 2a cytotoxicity, read-out: IC50 (μM) PC9 (Lung).
[20] abbreviates: MDA-MB-231, Table 2a cytotoxicity, read-out: IC50 (μM) MDA-MB-231 (Breast).
Setting [21] is: NCI-H1975, read-out: IC50 (μM) H1975 (Lung), Table 2a cytotoxicity.
[22] abbreviates: MDA-MB-231, Table 2, read-out: MDA-MB-231 [Breast].
The mark [23] stands for this setting: NCI-H1975, read-out: H1975 [Lung] (uM), Table 2.

With `C=CS(=O)(=O)N1CCN(Cc2ccc(OC(F)(F)F)c(F)c2)[C@@H](COCc2c[nH]nn2)C1` [SMDC556, (R)-2-(((1H-1,2,3-triazol-4-yl)methoxy)methyl)-1-(3-fluoro-4-(trifluoromethoxy)benzyl)-4-(vinylsulfonyl)piperazine], the “stability” value in data set [1] is reported as “too unstable”.

Take `C=CS(=O)(=O)N1CCN(Cc2ccc(OC(F)(F)F)c(F)c2)CC1` [SMDC689, 1-(Ethenesulfonyl)-4-{[3-fluoro-4-(trifluoromethoxy)phenyl]methyl}piperazine]: the Ki in [2] (Ki (uM), Table 1) stood at 32.9 µM; in data set [2] (Ki (μM), Table 1a), 45.8 ± 13.4 µM. Also, the kinact was found to be 0.028 s⁻¹ in data set [2] (setting [12]) and 0.031 ± 0.003 s⁻¹ in data set [2] (setting [13]). For the same compound, the IC50 turned out to be 661 nM in [3] (setting [14]); 51 nM in [3] (setting [15]); 51 nM in data set [3] (IC50 vs split Tasp1 WT); 661 ± 152 nM in [3] (setting [16]); 51 ± 47 nM in [3] (setting [17]); 15 µM in data set [4] (Table 2a cytotoxicity). Moreover, the IC50 was found to be 20 ± 10 µM in data set [5] (setting [18]); 13 µM in [6] (Table 2a cytotoxicity); 11 ± 1 µM in data set [7] (setting [19]); 16.5 ± 1.5 µM in data set [8] (setting [20]); 17.6 ± 8.3 µM in data set [9] (setting [21]).

Take `C=CS(=O)(=O)N1CCN(Cc2ccc(OC(F)(F)F)c(F)c2)[C@@H](CN2CCS(=O)(=O)CC2)C1` [SMDC275, 4-{[(2S)-4-(ethenesulfonyl)-1-{[3-fluoro-4-(trifluoromethoxy)phenyl]methyl}piperazin-2-yl]methyl}-1λ^6-thiomorpholine-1,1-dione]: the “binding affinity in the tethering assay” value in data set [10] was “enhanced binding affinity”. For the same compound, the IC50 in data set [3] (setting [14]) is 420 nM; in data set [3] (setting [15]) it was 27 nM; in [3] (IC50 vs split Tasp1 WT) it was about 20 nM; in data set [3] (setting [16]), 420 ± 80 nM; in data set [3] (setting [17]), 38 ± 16 nM; in [7] (Table 2, read-out: PC9 [Lung]), 3.5 µM. For the same compound, the IC50 is 3.5 µM in data set [7] (setting [19]); 4.3 µM in [8] (setting [22]); 4.3 µM in data set [8] (setting [20]); 2.6 µM in data set [9] (setting [23]); 2.6 µM in [9] (setting [21]).

As to `C=CS(=O)(=O)N1CCN(Cc2ccc(OC(F)(F)F)cc2)CC1` [SMDC967, 1-(ethenesulfonyl)-4-{[4-(trifluoromethoxy)phenyl]methyl}piperazine], the Ki in [2] (Ki (uM), Table 1) was determined as 6.02 µM; in data set [2] (Ki (μM), Table 1a), 30 µM. In addition, the kinact worked out at 0.011 s⁻¹ in data set [2] (setting [12]) and 0.004 s⁻¹ in data set [2] (setting [13]). For the same compound, the IC50 in data set [3] (setting [15]) worked out at 168 nM; in data set [3] (IC50 vs split Tasp1 WT) it was 114 nM; in data set [3] (setting [17]), 168 ± 54 nM.

`CN(C)CCSSCCCNC(=O)Cc1ccc(OC(F)(F)F)cc1` [SMDC673, N-(3-{[2-(Dimethylamino)ethyl]disulfanyl}propyl)-2-[4-(trifluoromethoxy)phenyl]acetamide]: the IC50 in data set [3] (IC50 vs split Tasp1 WT) worked out at 11300 nM.

Take `C#CCOC[C@H]1CN(S(=O)(=O)C=C)CCN1Cc1ccc(OC(F)(F)F)c(F)c1` [SMDC883, (2R)-4-(ethenesulfonyl)-1-{[3-fluoro-4-(trifluoromethoxy)phenyl]methyl}-2-[(prop-2-yn-1-yloxy)methyl]piperazine]: the inhibitory constant (Ki) came out at 64.3 µM in data set [2] (Ki (uM), Table 1) and 87 µM in [2] (Ki (μM), Table 1a). Also, the inactivation rate constant (kinact) in data set [2] (setting [12]) was found to be 0.037 s⁻¹; in data set [2] (setting [13]) it was 0.045 s⁻¹. The IC50 is 340 nM in [3] (setting [14]); 26 nM in data set [3] (setting [15]); about 20 nM in data set [3] (IC50 vs split Tasp1 WT); 340 ± 30 nM in data set [3] (setting [16]); 26 ± 8 nM in data set [3] (setting [17]).

For `C=CS(=O)(=O)N1CCN(Cc2cccc(OC(F)(F)F)c2)CC1` [SMDC723, 1-(3-(Trifluoromethoxy)benzyl)-4-(vinylsulfonyl)piperazine], the IC50 is over 20 µM in [11] (all cell lines studied, read-out: IC50 against cell lines studied); 40000 nM in data set [3] (IC50 vs split Tasp1 WT); about 28 µM in data set [4]; 24.4 ± 1.7 µM in data set [5] (NCI-H522, read-out: IC50 (μM) H522 (Lung)); about 32 µM in data set [6]; about 22 µM in [7] (Table 2, read-out: PC9 [Lung]). Besides, the IC50 is 25.8 ± 2.7 µM in data set [7] (read-out: IC50 (μM) PC9 (Lung), Table 2a cytotoxicity); about 37 µM in [8] (setting [22]); 37 µM in [8] (MDA-MB-231, read-out: IC50 (μM) MDA-MB-231 (Breast), Table 2a cytotoxicity); about 20 µM in data set [9] (setting [23]); 27.8 ± 5.6 µM in data set [9] (setting [21]).

`C=CS(=O)(=O)NCCCc1ccc(OC(F)(F)F)cc1` [SMDC714] yielded an IC50 in data set [3] (IC50 vs split Tasp1 WT) of 16000 nM.

Regarding `C=CS(=O)(=O)N1CCN(Cc2ccc(OC(F)(F)F)c(F)c2)[C@@H](CCO)C1` [SMDC069, 2-[(2S)-4-(ethenesulfonyl)-1-{[3-fluoro-4-(trifluoromethoxy)phenyl]methyl}piperazin-2-yl]ethan-1-ol], the Ki in data set [2] (Ki (uM), Table 1) was determined as 23.2 µM; in data set [2] (Ki (μM), Table 1a) it was 33 µM. Also, the kinact turned out to be 0.082 s⁻¹ in [2] (setting [12]) and 0.112 s⁻¹ in data set [2] (setting [13]). The concentration for a half-maximal effect (EC50) in data set [11] lay in the range of 2 to 6 µM. Besides, the IC50 in data set [3] (setting [14]) was 273 nM; in [3] (setting [15]) it was 17 nM; in [3] (IC50 vs split Tasp1 WT), about 20 nM; in [3] (setting [16]), 273 ± 68 nM; in data set [3] (setting [17]) it was 25 ± 16 nM; in [4] (Table 2a cytotoxicity), 3.4 µM. Besides, the IC50 was 2 µM in data set [5] (setting [18]); 3.2 µM in [6] (Table 2a cytotoxicity); about 2 µM in data set [7] (72 h, FIG. 3B, read-out: IC50, reduced viability of EGFR mutant PC9 lung cancer cells); 3.9 ± 2.6 µM in data set [7] (setting [19]); 6 ± 4.1 µM in [8] (setting [20]); 3.6 ± 2.2 µM in data set [9] (setting [21]).

In the case of `C=CS(=O)(=O)N1CCN(Cc2ccc(OC(F)(F)F)c(F)c2)[C@@H](COCc2cn[nH]c2)C1` [SMDC203, (R)-2-(((1H-pyrazol-4-yl)methoxy)methyl)-1-(3-fluoro-4-(trifluoromethoxy)benzyl)-4-(vinylsulfonyl)piperazine], the Ki in [2] (Ki (uM), Table 1) turned out to be 27.7 µM; in data set [2] (Ki (μM), Table 1a), 45 µM. Further, the inactivation rate constant (kinact) amounted to 0.048 s⁻¹ in data set [2] (setting [12]) and 0.061 s⁻¹ in data set [2] (setting [13]). The EC50 in data set [11] lay within 9.6 to 15.5 µM. The IC50 in [3] (setting [14]) was 237 nM; in data set [3] (setting [15]) it was 22 nM; in data set [3] (IC50 vs split Tasp1 WT), about 20 nM; in [3] (setting [16]) it was 237 ± 40 nM; in [3] (setting [17]), 32 ± 18 nM; in [4] (Table 2a cytotoxicity), 15 µM. The IC50 in [7] (Table 2, read-out: PC9 [Lung]) was 10.5 µM; in data set [7] (setting [19]), 10.3 ± 0.3 µM; in data set [8] (setting [22]) it was about 13 µM; in [8] (setting [20]), 15.5 ± 2.5 µM; in data set [9] (setting [23]), 8.1 µM; in data set [9] (setting [21]) it was 9.6 ± 1.5 µM.

In data set [3] (IC50 vs split Tasp1 WT), `CN(C)CCSSCCCC(=O)NCc1ccc(OC(F)(F)F)cc1` [SMDC208, 4-{[2-(dimethylamino)ethyl]disulfanyl}-N-{[4-(trifluoromethoxy)phenyl]methyl}butanamide] had an IC50 of 30300 nM.
